In patent US20220160669A1, “PARENTERAL NUTRITION FORMULATION” (BAXTER INTERNATIONAL INC., priority 2020, published 2022):

Tests used:
Format in all cases: in vivo, pig
[1] = system: Anti-inflammatory cytokines; assay: Anti-inflammatory cytokines, summary (site not stated); parameters: key: + denotes a positive effect (compared to standard PN); ++ a very positive effect; − denotes no difference; details: compared to standard PN
From the text: (§1) Neonatal Yorkshire/Landrace cross bred piglets (n=72; six at a time from the same litter, repeating 12 times) were obtained from Oak Hill Genetics (Ewing, Ill.) after 48-hour sow reared for colostrum consumption and iron supplementation.
(§2) The influence of the respective supplements on inflammation was investigated by determining Il-6, Il-1beta, TNF-alpha and Il-10 serum levels in the intervention groups compared to EN and PN according to Milo et al., Effects of Short-Chain Fatty Acid-Supplemented Total Parenteral Nutrition on Intestinal Pro-Inflammatory Cytokine Abundance. Digestive Diseases and Sciences 2002; 47:2049-2055. Jejunal and ileal samples were homogenized in double-distilled water, and the Bradford protein assay (Biorad, Hercules, Calif., USA) was performed on homogenate and plasma samples. Protein (30 μg) from each sample was denatured by boiling, and proteins were separated by size using 12.5% sodium dodecyl sulfate polyacrylamide gel electrophoresis. Separated proteins were transferred to polyvinylidene difluoride membranes (Biorad) using a semidry transfer apparatus (Biorad). Western blot analysis for TNF-alpha, IL-1beta, Il-10 and IL-6 was performed using porcine-specific polyclonal antibodies (Endogen, Woburn, Mass., USA). A mouse anti-pig monoclonal TNF-alpha antibody was used to detect TNF-alpha ([…]). Rabbit anti-pig polyclonal antibodies specific for IL-1beta and IL-6 were used to detect IL-1beta (17,500 kDa), Il-10 (18,600 kDa) and IL-6 (26,000 kDa). Membranes were developed using the Opti-4CN kit (Biorad) and photographed using the FOTO/Analyst Image Analysis System (Fotodyne, Inc., Hartland, Wis., USA). Densitometry of TNF-alpha, IL-1beta, IL-6, and Il-10 was performed using Collage Image Analysis Software 4.0 (Fotodyne, Inc.). Results are shown in FIG. 15 (Il-6), FIG. 16 (Illbeta), FIG. 17 (TNF-alpha) and FIG. 18 (Il-10).

[2] = system: Neonatal Yorkshire/Landrace cross bred piglets; assay: Intestinal histomorphology: villus height and crypt depth; parameters: key to Villus (total) / Crypt (total): + denotes a positive effect (compared to standard PN); ++ a very positive effect; − denotes no difference; key to Total villus height / Total crypt depth: +++ indicate P < 0.01; ++ indicates P < 0.05; + indicates positive trends; = denotes no significant P value; − denotes negative trends; details: for % Δ from PN, Total C (crypt depth) / % Δ from PN, Total V (villus height): sum over sections; for Crypt (total) / Villus (total): all sections, compared to standard PN; for Total crypt depth / Total villus height: compared to standard PN (s-PN)
Protocol: as §1
Formalin-fixed intestinal samples were embedded in paraffin, sliced to approximately 5-μm thickness with a microtome and stained with hematoxylin and eosin (FIG. 6). Villus height, midvillus width, and crypt depth were measured by using a Nikon Optiphot-2 microscope (Nikon, Melville, N.Y.) and ImagePro Express software (Version 4.5; Media Cybernetics, Inc, Silver Spring, Md.) in 8 to 10 well-oriented villi and crypts. Villus surface area (villus height×midvillus width) was also calculated. In addition, intestinal segment circumference was measured to estimate intestinal surface area. The results are provided in FIGS. 7 through 12 (see there for details). […] The Table summarizes the average difference (in % of each Intervention Group (A, B, C, D) versus the PN Group) of the villus height and the crypt depth in the different sections of the gut, i.e. duodenum, jejunum, ileum and colon. The Intervention Groups show an improved villus height compared to the s-PN Group.

[3] = system: Neonatal Yorkshire/Landrace cross bred piglets; assay: Duodenal mucosal resistance (Ussing chamber), PN-fed neonatal piglets; parameters: key: + denotes a positive effect (compared to standard PN); ++ a very positive effect; − denotes no difference; details: 10 days, compared to standard PN
[4] = system: Il-10; assay: Serum cytokine quantification, Il-10
From the text: as §1, §2

[5] = system: Neonatal Yorkshire/Landrace cross bred piglets; assay: Cognitive assessment by eyeblink conditioning; parameters: key: + denotes a positive effect (compared to standard PN); ++ a very positive effect; − denotes no difference; details: compared to standard PN
From the text: Eyeblink conditioning is an established Pavlovian method to assess the cerebellum and associated brainstem circuitry with hippocampus involvement that are essential for learning and memory. The eyeblink conditioning procedure took place in a sound-attenuating chamber. A fan was inside the chamber and ran throughout the experiment for ambient noise (70 dB). A speaker mounted to the wall of the chamber delivered the tone conditioned stimulus (CS). A small plastic air puff delivery nozzle (San Diego Instruments, San Diego, Calif.) was secured at approximately 2 cm from the piglet's left eye to deliver the unconditioned stimulus (US). After adaptation to the conditioning apparatus on study day 3, a total of five CS-US conditioning sessions occurred on study days 4-8 following. Each conditioning session consisted of 90 CS-US paired trials and 10 CS alone trials for a total of 100 trials/session. Every tenth trial was a CS alone trial. The CS-US paired trials included: a 500 ms auditory CS (1 kHz, 85 dB tone), a 400 ms interstimulus interval (ISI), followed by a 100 ms corneal airpuff US (10 psi). Both the CS and US were co-terminated at the exact same time. The CS alone trials consisted of a 500 ms auditory CS (1 kHz, 85 dB tone) only. There were random inter-trial intervals of 20 seconds throughout each session. Each conditioning session lasted no longer than 35 minutes. The San Diego Instruments eyeblink software was used to record conditioning session moment-to-moment infrared-reflectance data.

[6] = system: Pro-inflammatory cytokines; assay: Pro-inflammatory cytokines, summary (site not stated); parameters: key: + denotes a positive effect (compared to standard PN); ++ a very positive effect; − denotes no difference; details: compared to standard PN
From the text: as §1, §2

[7] = system: anti-inflammatory cytokines I1-8, I1-10; assay: Ileal cytokine concentration, anti-inflammatory; parameters: key: +++ indicate P < 0.01; ++ indicates P < 0.05; + indicates positive trends; = denotes no significant P value; − denotes negative trends; details: compared to standard PN (s-PN)
From the text: as §1, §2

## CCCCCCCCCCCCCCCC(=O)OCC(COC(=O)CCC)OC(=O)CCCCCCCCCCCCCCC (stereo not shown) [1,2-Dipalmitoyl 3-butyryl glycerol]
[1]; 10 mmol/L in PN
  Anti-inflammatory cytokines: +
[2]; 10 mmol/L TPN
  average duodenal crypt length (crypt depth, FIG. 8): gave the best results
  average duodenal villous length (FIG. 7): increased villous length compared to the other study groups
  average ileal crypt depth (FIG. 11): significant difference
  average jejunal crypt depth (FIG. 10): lower
  average jejunal villous length (FIG. 9): relatively good results
[2]; 10 mmol/L TPN (Groups A, C, D)
  % Δ from PN, Colon C (crypt depth): +12%
  % Δ from PN, Duodenum C (crypt depth): +19%
  % Δ from PN, Duodenum V (villus height): +31%
  % Δ from PN, Ileum C (crypt depth): +15%
  % Δ from PN, Ileum V (villus height): +24%
  % Δ from PN, Jejunum C (crypt depth): +2%
  % Δ from PN, Jejunum V (villus height): +5%
  % Δ from PN, Total Total (crypt + villus): +110%
  % Δ from PN, Total C (crypt depth): +50%
  % Δ from PN, Total V (villus height): +60%
[2]; 10 mmol/L in PN
  Crypt (total): +
  Villus (total): +
[3]; 10 mmol/L in PN
  Tight junctions: −
[4]; 10 mmol/L TPN (Groups A, C, D)
  serum levels of Il-10 (FIG. 18): almost or about as low
[5]; 10 mmol/L in PN
  Cognitive: −
[6]; 10 mmol/L in PN
  Pro-inflammatory cytokines: +

## CCCC(=O)OCC(COC(=O)CCC)OC(=O)CCC [Tributyrin]
[1]; 10 mmol/L in PN
  Anti-inflammatory cytokines: −
[1]; 30 mmol/L in PN
  Anti-inflammatory cytokines: +
[2]; 10 mmol/L TPN
  average duodenal crypt length (crypt depth, FIG. 8): gave the best results
  average duodenal villous length (FIG. 7): only slightly below the mean values determined for Groups B and D
  average ileal crypt depth (FIG. 11): significant difference
  average jejunal crypt depth (FIG. 10): lower
[2]; 10 mmol/L TPN (Groups A, C, D)
  % Δ from PN, Colon C (crypt depth): +9%
  % Δ from PN, Duodenum C (crypt depth): +11%
  % Δ from PN, Duodenum V (villus height): +32%
  % Δ from PN, Ileum C (crypt depth): +17%
  % Δ from PN, Ileum V (villus height): +14%
  % Δ from PN, Jejunum C (crypt depth): −8%
  % Δ from PN, Jejunum V (villus height): +14%
  % Δ from PN, Total Total (crypt + villus): +89%
  % Δ from PN, Total C (crypt depth): +29%
  % Δ from PN, Total V (villus height): +60%
[2]; 10 mmol/L in PN
  Crypt (total): +
  Villus (total): +
[2]; 10 mmol/L
  Total crypt depth: +
  Total villus height: +
[2]; 30 mmol/L TPN
  average duodenal crypt length (crypt depth, FIG. 8): better crypt depth than S-PN, but is not as good as Groups A, C and D
  average duodenal villous length (FIG. 7): increased villous length compared to the other study groups
[2]; 30 mmol/L TPN (Group B)
  % Δ from PN, Colon C (crypt depth): +10%
  % Δ from PN, Duodenum C (crypt depth): +12%
  % Δ from PN, Duodenum V (villus height): +12%
  % Δ from PN, Ileum C (crypt depth): +27%
  % Δ from PN, Ileum V (villus height): +31%
  % Δ from PN, Jejunum C (crypt depth): −14%
  % Δ from PN, Jejunum V (villus height): +5%
  % Δ from PN, Total Total (crypt + villus): +111%
  average jejunal crypt depth (FIG. 10): lower
  % Δ from PN, Total C (crypt depth): +63%
  % Δ from PN, Total V (villus height): +48%
[2]; 30 mmol/L in PN
  Crypt (total): ++
  Villus (total): ++
[2]; 30 mmol/L
  Total crypt depth: +
  Total villus height: +
[2]; Group B, printed in b62 as 10 mmol/L TPN
  average jejunal villous length (FIG. 9): relatively low
[3]; 10 mmol/L in PN
  Tight junctions: −
[3]; 30 mmol/L in PN
  Tight junctions: −
[4]; 10 mmol/L TPN (Groups A, C, D)
  serum levels of Il-10 (FIG. 18): lower than in the standard PN Group P
[4]; 30 mmol/L TPN (Group B)
  serum levels of Il-10 (FIG. 18): lower than in the standard PN Group P
[5]; 10 mmol/L in PN
  Cognitive: −
[5]; 30 mmol/L in PN
  Cognitive: −
[6]; 10 mmol/L in PN
  Pro-inflammatory cytokines: −
[6]; 30 mmol/L in PN
  Pro-inflammatory cytokines: +
[7]; 10 mmol/L
  Ileal Cytokine Concentration (more anti-inflammatory cytokines I1-8, I1-10): −
[7]; 30 mmol/L
  Ileal Cytokine Concentration (more anti-inflammatory cytokines I1-8, I1-10): +
